Results published in patent publication US20080255183A1, “N-[HETEROARYLCARBONYL]-3-THIENYL-L-ALANINE DERIVATIVES AS a5beta1 ANTAGONISTS” (ASTRAZENECA AB, priority 2007, published 2008).
Like-named read-outs stand apart in the source and are kept apart here.

Legend:
[1] = molecular target: recombinant human α5β1 integrin (Homo sapiens, UniProt P05556+P08648); assay: In vitro binding assay (a): inhibition of binding of α5β1 integrin to a fragment of human fibronectin (Fn9-10), Origen electrochemiluminescence; conditions: geometric mean of the measured IC50 values; n given below each value
Text: The assay determined the ability of compounds to inhibit binding of α5β1 integrin to a cognate ligand, a fragment of human fibronectin. The assay used Origen technology (IGEN International) to measure the compound activity. Briefly, α5β1 integrin was coated onto epoxy-paramagnetic beads (Dynal Biotech UK, Bromborough, Wirral, CH62 3QL, UK, Catalogue No 140.11) and biotinylated-fibronectin ligand was coupled to strepatividin labeled Tag-NHS-Ester (BioVeris Corporation, Witney, Oxfordshire, OX28 4GE, UK, Catalogue No 110034). The ruthenium-labeled tag emits an electrochemiluminescence signal upon stimulation which is detected by the Origen reader. Thus, interaction of integrin and ligand causes association of bead and tag, and the resulting electrochemiluminescence signal reflects the level of integrin interaction with fibronectin.
20 μg of recombinant human α5β1 was coated onto 4×10(7) epoxy-paramagnetic beads according to manufacturers instructions at 4° C. for 24 hours. Integrin coating and corresponding activity was subsequently measured for each batch but typically, 25 ng of coated protein was used per assay well.
A DNA fragment encoding the domains 9-10 (amino-acids 1325-1509) of human fibronectin (Swiss-Prot Accession No. P02751) was isolated from cDNA libraries using standard molecular biology and PCR cloning techniques. The cDNA fragment was sub-cloned into a pT73.3 expression vector containing a GST-epitope tag (developed at AstraZeneca; Bagnall et al., Protein Expression and Purification, 2003, 27: 1-11). Following expression in E. coli, the expressed protein, termed Fn9-10, was purified using the GST-tag using standard purification techniques. The recombinant Fn9-10 was subsequently biotinylated using a EZ-link Sulfo-NHS-LC-Biotinylation kit (Perbio Science UK Ltd., Cramlington, Northumberland, NE231WA, UK, Catalogue No. 21335) and made to give a final concentration of approximately 1 mg/mil. Tag-NHS-Ester was labeled with streptavidin by incubation at room temperature following manufacturers instructions and buffer-exchanged into PBS to give a concentration of 0.5 mg/ml. Immediately prior to the assay, biotinylated-Fn9-10 and Streptavidin-labeled Tag were diluted in Assay Buffer to give a final concentrations of 0.6 ug/ml and 1.5 ug/ml respectively. The Fn9-10 and Tag solutions were then mixed together in equal volumes and incubated on ice for at least 30 minutes prior to the assay.
Test compounds were prepared as 10 mM stock solutions in DMSO (Sigma-Aldrich Company Ltd, Gillingham, Dorset SP8 4XT Catalogue No. 154938) and serially diluted with 4% DMSO to give a range of test concentrations at ×4 required final concentration. Aliquots (20 μl) of each compound dilution were placed into each well of a 384-well round bottomed polypropylene plate (Matrix Technologies, Wilmslow, Cheshire, SK9 3LP, Catalogue No. 4340 384). Each plate also contained control wells: maximum signal was created using wells containing 20 μl of 4% DMSO, and minimum signal corresponding to no binding was created using wells containing 20 μl of 80 mM EDTA (Sigma Catalogue No. E7889).
For the assay, 25 ng (20 ul) of a5b1-bead suspension and […] of the Fn9-10/Tag pre-incubated solution were added to each well containing 20 μl of compound or control solution. Assay plates were then incubated at room temperature for a minimum of 6 hours before being analysed on an Origen plate reader. […]

[2] = tested on: α5β1 integrin mediated adhesion of K562 cells; assay: In vitro cell adhesion assay (b): inhibition of α5β1 integrin mediated adhesion of K562 cells to fibronectin fragment Fn9-10; type: cell-based, human
Text: The assay determined the ability of compounds to inhibit the α5β1 integrin mediated adhesion of K562 cells to the ligand, a fragment of human fibronectin. The human K562 erythroleukaemia cell line (LGC Promochem, Teddington, Middlesex, UK, Catalogue No. CCL-243) was routinely maintained in RPMI 1640 medium (Sigma-Aldrich Company Ltd, Gillingham, Dorset SP8 4XT, Catalogue No. R0883) containing 10% heat-inactivated foetal calf serum (PAA lab GmbH, Pasching, Austria Catalogue No. PAA-A15-043) and 1% glutamax-1 (Invitrogen Ltd. Paisley, UK Catalogue No. 35050-038) at 37° C. with 5% CO2 at densities between 1×10^5 and 1×10^6 cells/ml.
A DNA fragment encoding the domains 9-10 (amino-acids 1325-1509) of human fibronectin (Swiss-Prot Accession No. P02751) was isolated from cDNA libraries using standard molecular biology and PCR cloning techniques. The cDNA fragment was sub-cloned into a pT7#3.3 expression vector containing a GST-epitope tag (developed at AstraZeneca; Bagnall et al., Protein Expression and Purification, 2003, 27: 1-11), and the fragment termed Fn9-10. Following expression in E. coli, the expressed protein was purified using the GST-tag using standard purification techniques.
For adhesion assay, a 96-well flat bottomed plate (Greiner Bio one ltd., Gloucester GL10 3SX Catalogue No. 655101) was coated overnight at 4° C. with 100 μl of 20 μg/ml Fn9-10 ligand in Dulbecco's PBS (Gibco#14190-94). The plate was then washed twice with 200 μl of PBS and blocked with 100 μl of 3% BSA (SigmaA7888) in PBS for 1 hour at 37° C. The plates were then washed again 3 times with 200 μl of PBS and left empty.
Test compounds were prepared as 10 mM stock solutions in DMSO (Sigma-Aldrich Company Ltd, Gillingham, Dorset SP8 4XT Catalogue No. 154938) and serially diluted with HBSS (Hanks Buffered Salt solution (Gibco Catalogue No. 14170-088)/2% DMSO to give a range of test concentrations at twice required final concentration. Aliquots (50 μl) of each compound dilution were placed into each well of the Fn9-10 coated plates. Each plate also contained control wells: maximum adhesion signal was created using wells containing 50 μl HBSS/2% DMSO, and minimum signal corresponding to no adhesion was created using wells containing 50 μl HBSS/2% DMSO/20 mM EDTA (Sigma Catalogue No. E7889).
The K562 cells were cultured to 1×10^6 cells/ml, and each culture suspension pooled. Cells were centrifuged at 1200 rpm for 2 mins, and the pellets washed with HBSS followed by HBSS/50 mM HEPES (Sigma Catalogue No. H0887). Cell pellets were pooled and re-suspended in HBSS/0.4 mM manganese chloride/50 mM HEPES (MnCl; Sigma Catalogue No. M1787) to give a final concentration of 4×10^6 cells/ml.
The assay was initiated by the addition of 50 μl of cell suspension into each coated well (200,000 cells/well), thus resulting in final desired compound concentration and a final MnCl concentration of 0.2 mM. The plates were incubated for 45 minutes at 37° C. 5% CO2. After this time, the solution was flicked off as waste, and the remaining cell layer carefully washed twice with 200 μl of PBS, and then fixed with 200 μl of 100% ethanol for 30 minutes.
After fixation, the ethanol was flicked off to waste and 100 μl of 0.1% Crystal violet stain was added to each well, and incubated at ambient temperature for 15 minutes. Excess stain was removed by rinsing 3 times under cold slow running water. The plates were blotted over tissue then solubilised by adding 50 μl of 1% Triton X100 (Sigma Catalogue No. T9284) and shaking at 500 rpm for 30 mins on plate shaker. Finally, 100 μl of deionised water was added to each well and the absorbance was determined at 590 nm on a spectrophotometer. The minimum value was subtracted from all values, and the absorbance signal was plotted against compound concentration to generate IC50 data.

[3] = Homo sapiens, K562, geometric mean of the measured IC50 values, n given below each value, read-out: Adhesion Assay (b) IC50

Sequence of recombinant human α5β1 integrin (P08648 42-894 limits assumed): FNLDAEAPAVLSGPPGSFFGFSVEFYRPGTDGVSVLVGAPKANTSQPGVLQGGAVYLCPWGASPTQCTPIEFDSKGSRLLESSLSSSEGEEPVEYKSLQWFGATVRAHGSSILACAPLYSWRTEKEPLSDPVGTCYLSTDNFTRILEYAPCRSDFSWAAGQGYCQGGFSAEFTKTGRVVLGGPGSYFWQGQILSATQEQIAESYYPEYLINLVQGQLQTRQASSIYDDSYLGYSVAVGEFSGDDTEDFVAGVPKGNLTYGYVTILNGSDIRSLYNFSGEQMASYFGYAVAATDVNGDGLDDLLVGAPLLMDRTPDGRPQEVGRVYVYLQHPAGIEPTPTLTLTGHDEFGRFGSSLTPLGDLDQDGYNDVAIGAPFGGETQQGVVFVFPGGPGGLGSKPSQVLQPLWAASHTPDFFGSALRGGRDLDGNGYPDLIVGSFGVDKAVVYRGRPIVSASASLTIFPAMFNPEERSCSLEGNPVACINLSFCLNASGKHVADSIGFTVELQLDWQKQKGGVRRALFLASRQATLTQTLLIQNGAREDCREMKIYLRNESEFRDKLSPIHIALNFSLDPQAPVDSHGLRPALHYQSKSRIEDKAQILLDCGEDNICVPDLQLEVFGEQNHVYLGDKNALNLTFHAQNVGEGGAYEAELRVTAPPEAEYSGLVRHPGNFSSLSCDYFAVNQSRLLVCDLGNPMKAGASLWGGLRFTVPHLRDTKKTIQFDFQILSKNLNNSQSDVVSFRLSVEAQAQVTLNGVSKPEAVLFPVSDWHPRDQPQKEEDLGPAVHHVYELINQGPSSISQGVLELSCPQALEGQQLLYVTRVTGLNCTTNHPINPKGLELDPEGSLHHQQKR
Sequence of recombinant human α5β1 integrin (P08648 895-1049 partner limits assumed): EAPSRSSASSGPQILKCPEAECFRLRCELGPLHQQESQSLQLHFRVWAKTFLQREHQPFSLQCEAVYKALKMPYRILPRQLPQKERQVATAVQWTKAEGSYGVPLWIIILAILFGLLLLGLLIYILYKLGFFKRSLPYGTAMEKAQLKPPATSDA
Sequence of recombinant human α5β1 integrin (P05556 21-798): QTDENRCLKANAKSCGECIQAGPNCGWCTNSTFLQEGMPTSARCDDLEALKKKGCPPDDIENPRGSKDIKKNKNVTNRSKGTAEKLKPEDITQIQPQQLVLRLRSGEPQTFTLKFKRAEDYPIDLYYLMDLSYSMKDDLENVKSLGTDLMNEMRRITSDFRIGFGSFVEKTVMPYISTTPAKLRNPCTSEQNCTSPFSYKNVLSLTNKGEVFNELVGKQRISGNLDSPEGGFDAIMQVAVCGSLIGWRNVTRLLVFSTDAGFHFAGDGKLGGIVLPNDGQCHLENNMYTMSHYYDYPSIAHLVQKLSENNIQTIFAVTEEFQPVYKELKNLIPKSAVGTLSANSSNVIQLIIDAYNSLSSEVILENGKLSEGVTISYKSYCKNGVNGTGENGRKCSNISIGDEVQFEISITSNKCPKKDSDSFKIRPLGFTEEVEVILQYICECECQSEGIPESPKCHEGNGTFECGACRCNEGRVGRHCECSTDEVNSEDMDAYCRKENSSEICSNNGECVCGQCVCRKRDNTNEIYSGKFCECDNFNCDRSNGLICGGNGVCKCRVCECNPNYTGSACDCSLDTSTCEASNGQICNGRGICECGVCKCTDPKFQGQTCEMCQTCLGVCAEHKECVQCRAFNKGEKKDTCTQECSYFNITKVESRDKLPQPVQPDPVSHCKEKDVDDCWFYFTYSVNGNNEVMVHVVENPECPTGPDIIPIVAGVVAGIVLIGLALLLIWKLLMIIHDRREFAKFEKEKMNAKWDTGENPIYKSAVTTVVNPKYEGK

SMILES	IC50 [1]	IC50 [2, 3]	IC50 ([2]; Homo sapiens, K562, single determinations listed in brackets under the geometric mean (n = 3), read-out: Adhesion Assay (b) IC50, individual measured values)	IC50 ([2]; single determinations listed in brackets under the geometric mean (n = 3), read-out: Adhesion Assay (b) IC50, individual measured values)
CNc1cccc(CCCc2ccc(C[C@H](NC(=O)c3c(Cl)cncc3Cl)C(=O)O)s2)n1 [Example 1.2, N-[(3,5-dichloropyridin-4-yl)carbonyl]-3-(5-{3-[6-(methylamino)pyridin-2-yl]propyl}thiophen-2-yl)-L-alanine]	1 nM	8 nM	–	–
CNc1cccc(CCCc2ccc(C[C@H](NC(=O)c3c(C)noc3C)C(=O)O)s2)n1 [Example 1.1, N-[(3,5-dimethylisoxazol-4-yl)carbonyl]-3-(5-{3-[6-(methylamino)pyridin-2-yl]propyl}thiophen-2-yl)-L-alanine]	4 nM	27 nM	–	–
O=C(N[C@@H](Cc1ccc(OCCc2ccc3c(n2)NCCC3)s1)C(=O)O)c1c(Cl)cncc1Cl [Example 4, N-(3,5-dichloroisonicotinoyl)-3-{5-[2-(5,6,7,8-tetrahydro-1,8-naphthyridin-2-yl)ethoxy]-2-thienyl}-L-alanine]	< 1 nM	< 3 nM	–	–
O=C(N[C@@H](Cc1ccc(CCCc2ccc3c(n2)NCCC3)s1)C(=O)O)c1c(Cl)cncc1Cl [Example 3, N-(3,5-dichloroisonicotinoyl)-3-{5-[3-(5,6,7,8-tetrahydro-1,8-naphthyridin-2-yl)propyl]-thiophen-2-yl}-L-alanine]	0.3 nM	< 4 nM	5 nM	< 3 nM
Cc1noc(C)c1C(=O)N[C@@H](Cc1ccc(CCCc2ccc3c(n2)NCCC3)s1)C(=O)O [Example 2, N-[(3,5-dimethylisoxazol-4-yl)carbonyl]-3-{5-[3-(5,6,7,8-tetrahydro-1,8-naphthyridin-2-yl)propyl]thiophen-2-yl}-L-alanine]	< 1 nM	12 nM	–	–
